# Experimental data: US9976141B2, “Compositions and methods for inhibiting gene expression of Hif2alpha” (Arrowhead Madison Inc., priority 2015, dated 2018)
# Strand notation (5' to 3'): a small letter for the sugar, then the base; units joined by * are phosphorothioate-linked, units joined directly phosphodiester-linked; [ ] holds rarer units or linkages, { } end groups; capitals alone tell only the bases. {Alk-C6-SMPT-C6} = Alk-C6-SMPT-C6 linker modification, as named by the publication; [invdT] = inverted (3'-3') thymidine; e = 2'-O-(2-methoxyethyl) (MOE); m = 2'-O-methyl; f = 2'-fluoro
# System: human (tumor) Hif2α (EPAS1) mRNA
# Assay: Hif2α knockdown in orthotopic RCC tumor bearing mice, single injection of RNAi trigger-delivery polymer conjugate, RT-qPCR (Table 7)
# Assay type: in vivo
# Details: RNAi trigger 50 μg, polymer 064 125 μg; single tail vein injection; relative to isotonic glucose
# Summary of the method: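 Female athymic nude mice carried orthotopic A498-SEAP ccRCC kidney tumours, used 5–6 weeks after implantation. They received one tail-vein injection of RGD-targeted Hif2α RNAi trigger–polymer conjugate or isotonic glucose. Tumour Hif2α mRNA was measured by TaqMan RT-qPCR normalised to CycA (ΔΔCT) and expressed relative to glucose-treated mice.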
row,Substance,Relative Expression day 4 (Hif2α mRNA in kidney tumor)
1,"AD03257 (antisense UUUCAUGAAAUCGUUACGUUG; sense ACGUAACGAUUUCAUGAAAT; Hif2alpha RNAi agent antisense strand; modified_base 2,8,10,14 /mod_base = “2′-deoxy-2′-fluoro corresponding nucleoside”; modified_base 1,3,4,5,6,7,9,11,12,13,15,16,17,18,19,20,21 /mod_base = “2′-O-methyl corresponding nucleoside”; modified_base 2,3,20,21 /mod_base = “5′-phosphorothioate corresponding nucleotide”; Hif2alpha RNAi agent sense strand; modified_base 7,8,9 /mod_base = “2′-deoxy-2′-fluoro corresponding nucleoside”; modified_base 1,2,3,4,5,6,10,11,12,13,14,15,16,17,18,19 /mod_base = “2′-O-methyl corresponding nucleoside”; modified_base 20 /mod_base = “3′-3′-linked nucleotide”; modi)",0.203
2,"AD03258 (antisense AUUCAUGAAAUCGUUACGUUG; sense ACGUAACGAUUUCAUGAAUT; Hif2alpha RNAi agent antisense strand; modified_base 2,8,10,14 /mod_base = “2′-deoxy-2′-fluoro corresponding nucleoside”; modified_base 1,3,4,5,6,7,9,11,12,13,15,16,17,18,19,20,21 /mod_base = “2′-O-methyl corresponding nucleoside”; modified_base 2,3,20,21 /mod_base = “5′-phosphorothioate corresponding nucleotide”; Hif2alpha RNAi agent sense strand; modified_base 7,8,9 /mod_base = “2′-deoxy-2′-fluoro corresponding nucleoside”; modified_base 1,2,3,4,5,6,10,11,12,13,14,15,16,17,18,19 /mod_base = “2′-O-methyl corresponding nucleoside”; modified_base 20 /mod_base = “3′-3′-linked nucleotide”; modi)",0.137
3,"AD03259 (antisense AUUCAUGAAAUCGUUACGUTG; sense ACGUAACGAUUUCAUGAATT; Hif2alpha RNAi agent antisense strand; modified_base 2,8,10,14 /mod_base = “2′-deoxy-2′-fluoro corresponding nucleoside”; modified_base 1,3,4,5,6,7,9,11,12,13,15,16,17,18,19 /mod_base = “2′-O-methyl corresponding nucleoside”; modified_base 20,21 /mod_base = “2′-MOE nucleotide”; modified_base 2,3,20,21 /mod_base = “5′-phosphorothioate corresponding nucleotide”; Hif2alpha RNAi agent sense strand; modified_base 7,8,9 /mod_base = “2′-deoxy-2′-fluoro corresponding nucleoside”; modified_base 1,2,3,4,5,6,10,11,12,13,14,15,16,17 /mod_base = “2′-O-methyl corresponding nucleoside”; modified_base 20 /m)",0.179
4,"AD03260 (antisense AUUCAUGAAAUCGUUACGUUG; sense ACGUAACGAUUUCAUGAATT; Hif2alpha RNAi agent antisense strand; modified_base 2,8,10,14 /mod_base = “2′-deoxy-2′-fluoro corresponding nucleoside”; modified_base 1,3,4,5,6,7,9,11,12,13,15,16,17,18,19,20,21 /mod_base = “2′-O-methyl corresponding nucleoside”; modified_base 2,3,20,21 /mod_base = “5′-phosphorothioate corresponding nucleotide”; Hif2alpha RNAi agent sense strand; modified_base 7,8,9 /mod_base = “2′-deoxy-2′-fluoro corresponding nucleoside”; modified_base 1,2,3,4,5,6,10,11,12,13,14,15,16,17 /mod_base = “2′-O-methyl corresponding nucleoside”; modified_base 20 /mod_base = “3′-3′-linked nucleotide”; modified_b)",0.175
5,"AD03261 (antisense mA*fU*mUmCmAmUmGfAmAfAmUmCmGfUmUmAmCmGmU*mU*mG; sense ACGUAACGAUUUCAUGAAT; siRNA; sense: sugars from the 5' end e2 m4 f3 m8 e2, [invdT] at 3' end, linkages s1 o18 (s phosphorothioate, o phosphodiester), 5' {Alk-C6-SMPT-C6}, methylation of C not given here; further chemistry not fully specified)",0.177
6,"AD03262 (antisense AUUCAUGAAAUCGUUACGUUG; sense ACGUAACGAUUUCAUGAAUT; Hif2alpha RNAi agent antisense strand; modified_base 2,8,10,14 /mod_base = “2′-deoxy-2′-fluoro corresponding nucleoside”; modified_base 1,3,4,5,6,7,9,11,12,13,15,16,17,18,19,20,21 /mod_base = “2′-O-methyl corresponding nucleoside”; modified_base 2,3,20,21 /mod_base = “5′-phosphorothioate corresponding nucleotide”; Hif2alpha RNAi agent sense strand; modified_base 7,8,9 /mod_base = “2′-deoxy-2′-fluoro corresponding nucleoside”; modified_base 1,2,3,4,5,6,10,11,12,13,14,15,16,17,18,19 /mod_base = “2′-O-methyl corresponding nucleoside”; modified_base 20 /mod_base = “3′-3′-linked nucleotide”; modi)",0.197
7,"AD03263 (antisense AUUCAUGAAAUCGUUACGUUG; sense ACGUAACGAUUUCAUGAAUN; Hif2alpha RNAi agent antisense strand; modified_base 2,8,10,14 /mod_base = “2′-deoxy-2′-fluoro corresponding nucleoside”; modified_base 1,3,4,5,6,7,9,11,12,13,15,16,17,18,19,20,21 /mod_base = “2′-O-methyl corresponding nucleoside”; modified_base 2,3,20,21 /mod_base = “5′-phosphorothioate corresponding nucleotide”; Hif2alpha RNAi agent sense strand; modified_base 7,8,9 /mod_base = “2′-deoxy-2′-fluoro corresponding nucleoside”; modified_base 1,2,3,4,5,6,10,11,12,13,14,15,16,17,18,19 /mod_base = “2′-O-methyl corresponding nucleoside”; modified_base 20 /mod_base = “3′-3′-linked abasic site”; mod)",0.134
8,"AD03264 (antisense UUUCAUGAAAUCGUUACGUUG; sense ACGUAACGAUUUCAUGAAAT; Hif2alpha RNAi agent antisense strand; modified_base 2,3,8,10,14 /mod_base = “2′-deoxy-2′-fluoro corresponding nucleoside”; modified_base 1,4,5,6,7,9,11,12,13,15,16,17,18,19,20,21 /mod_base = “2′-O-methyl corresponding nucleoside”; modified_base 2,3,20,21 /mod_base = “5′-phosphorothioate corresponding nucleotide”; Hif2alpha RNAi agent sense strand; modified_base 7,8,9 /mod_base = “2′-deoxy-2′-fluoro corresponding nucleoside”; modified_base 1,2,3,4,5,6,10,11,12,13,14,15,16,17,18,19 /mod_base = “2′-O-methyl corresponding nucleoside”; modified_base 20 /mod_base = “3′-3′-linked nucleotide”; modi)",0.264
9,"AD03265 (antisense UUUCAUGAAAUCGUUACGUUG; sense UAUACGUAACGAUUUCAUGAAAT; Hif2alpha RNAi agent antisense strand; modified_base 2,4,6,8,14 /mod_base = “2′-deoxy-2′-fluoro corresponding nucleoside”; modified_base 1,3,5,7,9,10,11,12,13,15,16,17,18,19,20,21 /mod_base = “2′-O-methyl corresponding nucleoside”; modified_base 2,3,20,21 /mod_base = “5′-phosphorothioate corresponding nucleotide”; Hif2alpha RNAi agent sense strand; modified_base 2 modified base = “2′-hydroxy corresponding nucleoside”; modified_base 10,11,12 /mod_base = “2′-deoxy-2′-fluoro corresponding nucleoside”; modified_base 1,3,4,5,6,7,8,9,13,14,15,16,17,18,19,20,21,22 /mod_base = “2′-O-methyl correspon)",0.294
